Laboratory results published in PubChem BioAssay AID330 (DTP/NCI, 2004).
Inconclusive results and toxic doses are left out.

Tested on: P388 leukemia ip, CD2F1 mice, survival T/C
Assay: NCI In Vivo Anticancer Drug Screen. Data for tumor model P388 Leukemia (intraperitoneal) in CD2F1 (CDF1) mice
Settings: endpoint: median survival time, higher = longer survival
Procedure, shortened: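 Mice carrying the transplanted tumor received test compound or vehicle. Survival was recorded in each group, and the value is the treated-group measurement divided by that of the vehicle-treated control group.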

c1ccc2cc(OCC3CO3)c(OCC3CO3)cc2c1 (stereo not drawn)
T/C (dose: 1.88 mg/kg/injection, schedule: Q01DX005 (ip), vehicle: saline with Tween-80): 100 % of control
T/C (dose: 3.75 mg/kg/injection, schedule: Q01DX005 (ip), vehicle: saline with Tween-80): 107 % of control
T/C (dose: 7.5 mg/kg/injection, schedule: Q01DX005 (ip), vehicle: saline with Tween-80): 116 % of control
T/C (dose: 15.0 mg/kg/injection, schedule: Q01DX005 (ip), vehicle: saline with Tween-80): 122 % of control
T/C (dose: 120.0 mg/kg/injection, schedule: Q01DX005 (ip), vehicle: saline with Tween-80): 151 % of control

COc1cc(NCC(O)CN2C(C)CCCC2C)c2ncccc2c1 (stereo not drawn)
T/C (dose: 6.0 mg/kg/injection, schedule: Q01DX005 (ip), vehicle: saline): 98 % of control
T/C (dose: 12.5 mg/kg/injection, schedule: Q01DX005 (ip), vehicle: saline): 100 % of control

CC1CCC(C(C)C2C(O)CC3C4CCC5CC(N)CCC5(C)C4CCC32C)=NC1 (stereo not drawn) (tested in a mixture with another compound)
T/C (dose: 6.25 mg/kg/injection, schedule: Q01DX009 (ip), vehicle: Klucel (hydroxypropylcellulose) (HPC)): 100 % of control
T/C (dose: 12.5 mg/kg/injection, schedule: Q01DX009 (ip), vehicle: Klucel (hydroxypropylcellulose) (HPC)): 94 % of control
T/C (dose: 25.0 mg/kg/injection, schedule: Q01DX009 (ip), vehicle: Klucel (hydroxypropylcellulose) (HPC)): 105 % of control

O=C1CC(=O)N(C2CCCCC2)C(=O)N1c1ccccc1S(=O)(=O)Oc1ccccc1
T/C (dose: 50.0 mg/kg/injection, schedule: Q01DX005 (ip), vehicle: saline with Tween-80): 103 % of control
T/C (dose: 100.0 mg/kg/injection, schedule: Q01DX005 (ip), vehicle: saline with Tween-80): 101 % of control
T/C (dose: 200.0 mg/kg/injection, schedule: Q01DX005 (ip), vehicle: saline with Tween-80): 103 % of control

COc1ccc(C(O)(C2CC2)C2CC2)cc1
T/C (dose: 100.0 mg/kg/injection, schedule: Q01DX001 (ip), vehicle: Klucel (hydroxypropylcellulose) (HPC)): 98 % of control
T/C (dose: 200.0 mg/kg/injection, schedule: Q01DX001 (ip), vehicle: Klucel (hydroxypropylcellulose) (HPC)): 94 % of control
T/C (dose: 400.0 mg/kg/injection, schedule: Q01DX001 (ip), vehicle: Klucel (hydroxypropylcellulose) (HPC)): 98 % of control

CC(C(=O)c1ccccc1)c1nc2nnc(N)n2[nH]c1=O (stereo not drawn)
T/C (dose: 60.0 mg/kg/injection, schedule: Q01DX005 (ip), vehicle: saline): 95 % of control
T/C (dose: 120.0 mg/kg/injection, schedule: Q01DX005 (ip), vehicle: saline): 100 % of control
T/C (dose: 240.0 mg/kg/injection, schedule: Q01DX005 (ip), vehicle: saline): 95 % of control

CSCSCC(CO)NC(=O)/C=C/c1c(C)[nH]c(=O)[nH]c1=O (stereo not drawn)
T/C (dose: 0.08 mg/kg/injection, schedule: Q01DX009 (ip), vehicle: water): 105 % of control
T/C (dose: 0.15 mg/kg/injection, schedule: Q01DX009 (ip), vehicle: water): 107 % of control
T/C (dose: 0.3 mg/kg/injection, schedule: Q01DX009 (ip), vehicle: water): 102 % of control
T/C (dose: 0.6 mg/kg/injection, schedule: Q01DX009 (ip), vehicle: water): 101 % of control
T/C (dose: 1.2 mg/kg/injection, schedule: Q01DX009 (ip), vehicle: water): 109 % of control
T/C (dose: 50.0 mg/kg/injection, schedule: Q01DX009 (ip), vehicle: other): 87 % of control
T/C (dose: 100.0 mg/kg/injection, schedule: Q01DX009 (ip), vehicle: other): 98 % of control
T/C (dose: 200.0 mg/kg/injection, schedule: Q01DX009 (ip), vehicle: other): 89 % of control
T/C (dose: 400.0 mg/kg/injection, schedule: Q01DX009 (ip), vehicle: other): 86 % of control

Cc1ccc(S(=O)(=O)Nc2ccccc2N(CCNCCOS(=O)(=O)c2ccc(C)cc2)S(=O)(=O)c2ccc(C)cc2)cc1
T/C (dose: 100.0 mg/kg/injection, schedule: Q04DX002 (ip), vehicle: saline with Tween-80): 96 % of control
T/C (dose: 200.0 mg/kg/injection, schedule: Q04DX002 (ip), vehicle: saline with Tween-80): 98 % of control
T/C (dose: 400.0 mg/kg/injection, schedule: Q04DX002 (ip), vehicle: saline with Tween-80): 91 % of control

CC(=O)NCCc1nc(-c2nc(C(=O)O)cs2)cs1
T/C (dose: 12.5 mg/kg/injection, schedule: Q01DX009 (ip), vehicle: distilled water + Tween-80): 102 % of control
T/C (dose: 25.0 mg/kg/injection, schedule: Q01DX009 (ip), vehicle: distilled water + Tween-80): 100 % of control
T/C (dose: 50.0 mg/kg/injection, schedule: Q01DX009 (ip), vehicle: distilled water + Tween-80): 102 % of control
T/C (dose: 100.0 mg/kg/injection, schedule: Q01DX009 (ip), vehicle: distilled water + Tween-80): 100 % of control

CC(=O)Nc1ccc(O)c(CN2CCN(c3ccccc3)CC2)c1
T/C (dose: 50.0 mg/kg/injection, schedule: Q01DX009 (ip), vehicle: Klucel (hydroxypropylcellulose) (HPC)): 102 % of control
T/C (dose: 100.0 mg/kg/injection, schedule: Q01DX009 (ip), vehicle: Klucel (hydroxypropylcellulose) (HPC)): 103 % of control
T/C (dose: 200.0 mg/kg/injection, schedule: Q01DX009 (ip), vehicle: Klucel (hydroxypropylcellulose) (HPC)): 97 % of control
